# From patent US20230092648A1, “COMBINATION CONTAINING A DUOCARMYCIN DERIVATIVE-COMPRISING ANTIBODY-DRUG CONJUGATE AND THIOSULFATE” (BYONDIS B.V., priority 2020, published 2023)
# Conditions: formulations up to a concentration of 0.3 M STS; ocular route
smiles,measurement,value
"O=S(O)(O)=S [STS, sodium thiosulfate]",adverse findings (local tolerance and toxicity),did not show adverse findings
